According to PMC6934825 (Scientific Reports, 2019):
Entries after “also recorded” stand apart in the source; their conditions may differ.

Columns and labels:
[1] = plasma in vitro; cited from earlier work
[2] = clinical trials, acute respiratory distress syndrome; cited from earlier work
[3] = human, up to 120 minutes
[4] = in vivo study in male rats; settings: cited from earlier work

For CSCC[C@H](NC(=O)[C@@H]1CCCN1C(=O)CNC(=O)[C@H](CCCCN)NC(=O)[C@H](Cc1cnc[nH]1)NC(=O)[C@H](CO)NC(=O)[C@H](CC(C)C)NC(=O)[C@H](CCCNC(=N)N)NC(=O)[C@@H]1CCCN1C(=O)[C@H](CCCNC(=N)N)NC(=O)[C@@H]1CCC(=O)N1)C(=O)N1CCC[C@H]1C(=O)N[C@@H](Cc1ccccc1)C(=O)O [[Pyr^1]apelin-13], the “degradation in rat and mouse plasma compared to dog, monkey and human plasma” value [1] is given as “more rapid degradation”.

For “GSK2586881: recombinant human ACE2 for treatment of acute respiratory distress syndrome”, the tolerability [2] is listed as “well-tolerated”.

For “pGlu Arg Pro Arg Leu Ser His Lys Gly Pro Met Pro Phe”, the cleaved bond [3] is given as “Pro10-Met11, major, 120 minutes; also recorded: Ser6-His7, major, 120 minutes; also recorded: Leu5-Ser6, 120 minutes” and the fragment found [4] is given as “[Pyr^1]apelin-13(1–12); also recorded: [Pyr^1]apelin-13(1–10); also recorded: [Pyr^1]apelin-13(1–6)”.
